Key:
[1] = tested on: vascular smooth muscle cells, MG-63 cell line, HepG2 cell line; assay: K epoxide formation without warfarin under cell starvation (1% fetal calf serum); assay type: cell-based; conditions: no warfarin, fetal calf serum decreased to 1% (v/v)
Description: (§1) This series of cell culture experiments describe vitamin K uptake and metabolism under various conditions. The following forms of vitamin K were compared: K1, MK-4, MK-7, MK-8 and MK-9. They were tested in three different cell types: the vascular smooth muscle cells, the osteoblast-like MG-63 cell line and the hepatocyte-like HepG2 cell line. In all experiments the vitamins were used as a mixture containing 1 μmol/L of each vitamin. All data are the means of triplicate experiments.
(§2) Since under standard cell culture conditions no epoxides are formed, we have applied sub-optimal growth conditions by decreasing the fetal calf serum in the culture medium to 1% (v/v). […] This was ruled out in an experiment in which VSMC and MG63 were grown at 1% FCS and with only one single form of vitamin K present (1 μmol/L).

[2] = tested on: vascular smooth muscle cells, MG-63 cell line, HepG2 cell line; assay: K epoxide formation in the presence of warfarin (bypassing of warfarin) in three cell types; assay type: cell-based; conditions: for interference with warfarin: 10 μmol/L warfarin added 18 h before and present during vitamin K incubation
Description: as §1
(§3) Under normal conditions, all forms of vitamin K are taken up in their quinone form, and they are reduced into the hydroquinone before being active as a cofactor for the enzyme gammaglutamylcarboxylase. During the carboxylation they are oxidized into epoxides, which can be reduced by the membrane-bound enzyme VKOR. VKOR forms the target for drugs known as coumarin derivatives, which inactivate the enzyme and thus block the recycling of K epoxides. Vitamin K quinones (and not the epoxides) can be reduced by a second enzyme system, known as DT diaphorase. […] Coumarin derivatives are widely used as oral anticoagulants; their mode of action is based on the inhibition of clotting factor carboxylation in the liver. Interference with coumarin derivatives is thus a potential risk of vitamin K supplements. Therefore we have investigated whether and to which extend the various K vitamins interfere with warfarin. In the study described, 10 μmol/L of warfarin was added to the culture media 18 h before adding vitamin K. Also during incubation with K vitamins this concentration of warfarin was present.

[3] = tested on: vascular smooth muscle cells, MG-63 cell line, HepG2 cell line; assay: Cellular vitamin K uptake in three cell types; assay type: cell-based; conditions: for cellular uptake compared with other K vitamins: all cells, mixture containing 1 μmol/L of each vitamin
Description: as §1
(§4) Cells were grown until 80% confluence after which vitamin K was added in different concentrations (see FIGS. 5A-C). The added vitamin K concentration is given as nmol/L of culture medium, the vitamin K recovered is given as nmol/g of cellular protein. Note the different scales for each vitamin.
Cellular uptake of K vitamins was followed in time. In all cases a mixture of the various K vitamins (1 μmol/L final concentration in the culture medium) was added to the cells after they had grown to 80% confluence. […] The mechanism behind this cellular preference for MK-7 is not quite clear.

[4] = tested on: vascular smooth muscle cells; assay: Carboxylated matrix Gla-protein in culture medium with a single form of vitamin K; assay type: cell-based; conditions: 1% FCS, single form of vitamin K 1 μmol/L, 24 hours incubation
Description: as §2

[5] = Stability of K vitamins in cell culture media with no cells present; assay type: physicochemical; conditions: 1 μM of each vitamin, three growth media, over 48 hours
Description: Here we have checked the stability of the various forms of vitamin K (1 μM of each) in the three cell culture media with no cells present.

MG63 [6] = assay: Carboxylated osteocalcin in culture medium with a single form of vitamin K; assay type: cell-based; conditions: 1% FCS, single form of vitamin K 1 μmol/L, 24 hours incubation
Description: as §2

MG63 cell line = assay: K epoxide formation in the presence of warfarin in MG63; assay type: cell-based; conditions: 10 μmol/L warfarin
Description: as §1
as §3, with “In the study described, 10 μmol/L of warfarin was added to the culture media 18 h before adding vitamin K. Also during incubation with K vitamins this concentration of warfarin was present.” left out

[7] = tested on: vascular smooth muscle cells; assay: Cellular MK-7 uptake in vascular smooth muscle cells; assay type: cell-based; conditions: FIG. 5D
Description: as §1, §4

MG63 [8] = assay: Cellular MK-7 uptake in MG63; assay type: cell-based; conditions: FIG. 5D
Description: as §1, §4

[9] = tested on: blood clotting factor carboxylation; conditions: dosages as high as 100 μg per day; cited from earlier work
Matrix Gla-Protein (MGP) = assay: Carboxylated / non-carboxylated MGP in plasma by sandwich ELISA during fish oil and MK-7 intake; assay type: in vivo, human; conditions: 5 g/day fish oil plus 10 μg/day MK-7, months 2, 3 and 4
Description: (§5) Twenty healthy males (43±8 years of age) were enrolled in the study. The mean body mass index was 25.1±3.5 kg/m^2. All subjects received 5 grams of fish oil (containing 35% EPA, 25% DHA and 10% other n-3 PUFA) per day during 4 months. During the last 3 months of the study all volunteers received additionally one soft gel capsule per day providing 10 μg of MK-7. Blood samples were collected in citrate every month to prepare platelet-rich plasma. The endogenous thrombin potential (ETP), reflecting the total thrombin activity during coagulation, was monitored according to H. C. Hemker et al. (Pathophysiology of Haemostasis and Thrombosis 2003; 33:4-15). Carboxylated and non-carboxylated Matrix Gla-Protein (MGP) species were monitored using sandwich ELISAs based on conformation-specific antibodies obtained from VitaK BV (Maastricht, The Netherlands) with normal pooled plasma as a reference. The ratio between carboxylated and non-carboxylated MGP is taken as a measure for vascular vitamin K status. All values are expressed as a percentage of those in the pooled reference plasma.

[10] = Stability of MK-7 dissolved in fish oil and krill oil; assay type: physicochemical; conditions: for time compositions remained stable: MK-7 mixed with fish oil or krill oil
Description: Compositions as described in Examples 2 and 4 (MK-7 dissolved in fish oil and krill oil, respectively) were prepared to a final concentration of 2 μg of MK-7 per g of oil. Samples were prepared in sealed glass bottles and kept in a dark place at room temperature, 40° C. and 100° C., respectively. At regular times, samples were taken and analyzed for their MK-7 content. No loss of MK-7 was observed, even after 2 weeks at 100° C.

osteocalcin = assay: Carboxylated / non-carboxylated osteocalcin in serum during fish oil and MK-7 intake; assay type: in vivo, human; conditions: 5 g/day fish oil plus 10 μg/day MK-7, months 3 and 4
Description: In the same experiment as described above, also serum was collected, in which carboxylated and non-carboxylated osteocalcin species were monitored using the conformation-specific osteocalcin kits from Takara (Japan).

[11] = tested on: endogenous thrombin potential (ETP); assay: Endogenous thrombin potential (ETP) in platelet-rich plasma of volunteers on fish oil, with or without MK-7; assay type: in vivo, human
Description: as §5, with “During the last 3 months of the study all volunteers received additionally one soft gel capsule per day providing 10 μg of MK-7.” left out

Row | Compound | epoxides found without warfarin at decreased fetal calf serum [1] | interference with warfarin [2] | cellular uptake compared with other K vitamins [3] | Carboxylated matrix Gla-protein in the culture medium [4] [ng/mL] | stability in growth media [5] | Carboxylated osteocalcin in the culture medium (MG63 [6]) [ng/mL] | utilization of K-vitamins in the presence of warfarin (rank order) ([2]; 10 μmol/L warfarin) | further results
1 | CC1=C(C/C=C(\C)CCC[C@H](C)CCC[C@H](C)CCCC(C)C)C(=O)c2ccccc2C1=O [K1, vitamin K1, reference compound] | mainly found | interfere substantially | much less | 12.4 | fairly stable | 3.2 | – | –
2 | CC(C)=CCC/C(C)=C/CC/C(C)=C/CC/C(C)=C/CC1=C(C)C(=O)c2ccccc2C1=O [MK-4] | mainly found | interfere substantially | much less | 10.7 | – | 4.1 | – | K vitamin epoxides identified in the presence of warfarin (MG63 cell line): could only identify MK-4 epoxide
3 | CC(C)=CCC/C(C)=C/CC/C(C)=C/CC/C(C)=C/CC/C(C)=C/CC/C(C)=C/CC/C(C)=C/CC/C(C)=C/CC/C(C)=C/CC1=C(C)C(=O)c2ccccc2C1=O [MK-9] | – | – | somewhat less | – | fairly stable | – | MK-7>MK-8>MK-9 | epoxide formation in the presence of warfarin ([2]; 10 μmol/L warfarin, FIG. 7): hardly formed
4 | CC(C)=CCC/C(C)=C/CC/C(C)=C/CC/C(C)=C/CC/C(C)=C/CC/C(C)=C/CC/C(C)=C/CC1=C(C)C(=O)c2ccccc2C1=O [MK-7] | – | – | taken up better than other K vitamins | 13.5 | fairly stable | 3.9 | MK-7>MK-8>MK-9 | vitamin K uptake compared between cell types [7]: highest; vitamin K uptake compared between cell types (MG63 [8]): lowest; effect on warfarin anticoagulation [9]: counteract the effect of warfarin; cellular uptake compared with other K vitamins (dose-response, Experiment 6) ([3]; all systems, notably extrahepatic cells, cells at 80% confluence): taken up surprisingly better than the other K vitamins; cellular uptake compared with other K vitamins (time course, Experiment 7) ([3]; all three cell systems, mixture 1 μmol/L): taken up better than any of the other vitamins; change in MGP carboxylation (ratio carboxylated / non-carboxylated MGP) (Matrix Gla-Protein (MGP)): significance was lost; loss of MK-7 content ([10]; 2 μg MK-7 per g fish oil or krill oil, sealed glass bottles, dark, room temperature, 40° C., 100° C., even after 2 weeks at 100° C.): No loss; time compositions remained stable ([10]; 40° C.): ≥ 6 months; time compositions remained stable ([10]; 100° C.): at least 2 weeks; time compositions remained stable ([10]; room temperature): ≥ 3 years; change in osteocalcin carboxylation (osteocalcin): significance was lost; fish-oil induced hypocoagulability (ETP) ([11]; 10 μg/day MK-7 during last 3 of 4 months on 5 g/day fish oil): not counteracted; ETP lowering effect of marine oils ([11]; MK-7 100 μg per day and higher, marine oil intake 5 grams per day): completely reversed; endogenous thrombin potential (ETP) ([11]; MK-7 between 1 and 10 μg/day, marine oil intake 5 grams per day): did not affect
5 | CC(C)=CCC/C(C)=C/CC/C(C)=C/CC/C(C)=C/CC/C(C)=C/CC/C(C)=C/CC/C(C)=C/CC/C(C)=C/CC1=C(C)C(=O)c2ccccc2C1=O [MK-8] | – | – | somewhat less | – | fairly stable | – | MK-7>MK-8>MK-9 | –

Source: patent US20100048704A1, “PHARMACEUTICAL AND NUTRACEUTICAL PRODUCTS COMPRISING VITAMIN K2” (NATTOPHARMA ASA, priority 2006, published 2010)
